In brackets after ≈: the same amount, converted by molar mass. Like-named read-outs stand apart in the source and are kept apart here.
Legend:
P. aeruginosa = test: microbe, parasite or virus in culture; assay type: cell-based, Pseudomonas aeruginosa; conditions: Pseudomonas aeruginosa, MHB2, 18 h, 37°C
Procedure: Bacterial clinical isolates, used for initial screening and in previous studies ([Deslouches et al., 2013]; [Lin et al., 2018]), were anonymously provided by the clinical microbiology laboratory of the University of Pittsburgh medical Center. The panel used for secondary screening was from [CDC (2013)] (Supplementary Table 3), with resistance profiles data. Bacteria are stored in lock-secured –80°C freezer and typically retrieved by obtaining single colonies on agar plates prior for subsequent liquid broth cultures. Suspensions of test bacteria were prepared from log phase of growth by diluting overnight cultures at 1:100 with fresh cation-adjusted MHB (MHB2, Millipore Sigma, United States) and incubating for additional 3–4 h. Bacteria were spun at 3,000 × g for 10 min and the pellet resuspended in test condition media (Millipore Sigma, United States) to determine bacterial turbidity using a Den-1B densitometer (Grant Instruments, United States) at 0.5 McFarland (unit of bacterial density) corresponding to […].
To examine antibacterial activity, we used minor modifications of a standard growth inhibition assay endorsed by the Clinical and Laboratory Standards Institute (CLSI), as previously described ([Deslouches et al., 2013]). Bacteria were incubated with each of the indicated peptides in MHB2. The bacterial cells were kept in an incubator for 18 h at 37°C, which is linked to a robotic system that feeds a plate reader every hour with one of 8 × 96-well plates. This set-up allows the collection of growth kinetic data at A 570 (absorbance at 570 nm) to examine growth inhibition in real time (BioTek Instruments, United States). […] The assays are typically repeated a second time. If the MIC is different, a third experimental trial is performed to confirm the MIC. To assess bactericidal properties of the peptide, the assay was modified by using 15% fetal bovine serum (FBS, for a more physiologically relevant test condition) mixed with 25% MHB2 and 60% PBS. Bacterial cells (colony forming unit/mL or CFU/mL) were enumerated after incubating treated bacteria for 3 h and plating serially diluted samples on broth agar medium at 37°C overnight. Minimum bactericidal concentration (MBC) was determined as the peptide concentration at which complete bacterial killing was observed. […] Data were analyzed using GraphPad Prism software.

Enterobacter spp = test: microbe, parasite or virus in culture; assay type: cell-based, Enterobacter spp (aerogenes, cloacae); conditions: Enterobacter, 18 h, UPMC, MHB2, 18 h, 37°C
Summary of the method: (§1)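 Clinical isolates in log phase were exposed to peptides in cation-adjusted MHB for 18 h at 37 °C, with growth followed hourly at A570 to give the MIC by a modified CLSI method. For MBC, bacteria were treated 3 h in 15% FBS/25% MHB/60% PBS and then plated; MBC was the concentration giving complete killing.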

A. baumannii = test: microbe, parasite or virus in culture; assay type: cell-based, Acinetobacter baumannii; conditions: Acinetobacter baumannii, 18 h, MHB2, 18 h, 37°C
Summary of the method: as §1

E. coli = test: microbe, parasite or virus in culture; assay type: cell-based, Escherichia coli; conditions: Escherichia coli, 18 h, MHB2, 18 h, 37°C
Summary of the method: as §1

MDR strain PA239 = test: Propidium iodide incorporation by flow cytometry; assay type: cell-based, Pseudomonas aeruginosa; conditions: 2 μM, treated for 3 h
Excerpt: To examine whether the selected peptides kill their bacterial target mainly by membrane permeabilization, we used PI incorporation by the MDR strain PA239 (5 × 10^8 CFU/mL) quantitated by flow cytometry (Novocyte, United States) or visualized by video imaging using the digital microscope EVOS M7000 (Thermo Fisher Scientific, United States) in bright field or red fluorescence channel. In the flow cytometry experiments ([Di et al., 2020]), bacterial cells were either untreated or treated with different peptide E35 concentrations in MHB2 for 1 h at 37°C. We washed the bacteria-peptide mixture with PBS using an Eppendorf centrifuge at top speed for 7 min and incubated with PI in the dark for 15 min at room temperature. Tobramycin was used as a negative control with a 3-h long incubation. For video imaging, the broth medium was reduced to 20% in PBS (treated or untreated) to decrease the rate of cell division and PI incorporation assessed over time. Video images were recorded in real time using the 40× objective either in bright field or red fluorescence channel.

[1] = system: P. aeruginosa strain PA239; test: Bactericidal assay (MBC) in FBS-containing medium FMP; assay type: cell-based; conditions: within 3h of incubation
Procedure: Bacteria were incubated with each of the indicated peptides in MHB2. […] To assess bactericidal properties of the peptide, the assay was modified by using 15% fetal bovine serum (FBS, for a more physiologically relevant test condition) mixed with 25% MHB2 and 60% PBS. […] Data were analyzed using GraphPad Prism software.

K. pneumoniae = test: microbe, parasite or virus in culture; assay type: cell-based, Klebsiella pneumoniae; conditions: Klebsiella pneumoniae, 18 h, MHB2, 18 h, 37°C
Summary of the method: as §1

CDC AR isolates = system: CDC AR isolates; parameters: key: S (green), susceptible; I (blue), intermediate; R (red), resistant; conditions: data provided by the CDC, ref CDC, cited from earlier work
Excerpt: Supplement Table_3.XLSX, sheet "CDC AR isolates profiles" | column: G(-) strains

NC[C@H]1O[C@H](O[C@H]2[C@H](O)[C@@H](O[C@H]3O[C@H](CO)[C@@H](O)[C@H](N)[C@H]3O)[C@H](N)C[C@@H]2N)[C@H](N)C[C@@H]1O [Tobramycin, reference compound]
MIC (P. aeruginosa; 18 h, strain PA01): 1 µM (≈ 0.468 µg/mL)
MIC (P. aeruginosa; 18 h, strain PA97-5, UPMC): > 16 µM
MIC (P. aeruginosa; 18 h, strain PA129-5, UPMC): 16 µM (≈ 7.48 µg/mL)
MIC (P. aeruginosa; PA14, 18 h, strain PA14): 0.5 µM (≈ 0.234 µg/mL)
MIC (Enterobacter spp; strain EA518 (aerogenes)): > 16 µM
MIC (Enterobacter spp; strain EA596 (aerogenes)): > 16 µM
MIC (Enterobacter spp; strain EC470 (cloacae)): 4 µM (≈ 1.87 µg/mL)
MIC (Enterobacter spp; strain EC560 (cloacae)): > 16 µM
MIC (A. baumannii; strain AB-A2, UPMC clinical strain, A570, confirmed by 2nd or 3rd trial): 0.5 µM (≈ 0.234 µg/mL)
MIC (A. baumannii; strain AB-A3, UPMC): 16 µM (≈ 7.48 µg/mL)
MIC (A. baumannii; strain AB-F8, UPMC): > 16 µM
MIC (A. baumannii; strain AB-F9, UPMC): 2 µM (≈ 0.935 µg/mL)
MIC (E. coli; strain YDC337, UPMC): > 16 µM
MIC (E. coli; strain YDC748, UPMC): 16 µM (≈ 7.48 µg/mL)
PI incorporation (MDR strain PA239): 29%
bacterial killing [1]: did not display any substantial bacterial killing
MIC (K. pneumoniae; strain KPA5 (colistin-resistant), UPMC): > 16 µM
MIC (K. pneumoniae; strain KPB3, UPMC): > 16 µM
Antibiotic susceptibility profile (CDC AR isolates; Acinetobacter baumannii AB273, CDC AR isolate): R
Antibiotic susceptibility profile (CDC AR isolates; Acinetobacter baumannii AB274, CDC AR isolate): S
Antibiotic susceptibility profile (CDC AR isolates; Acinetobacter baumannii AB275, CDC AR isolate): R
Antibiotic susceptibility profile (CDC AR isolates; Acinetobacter baumannii AB276, CDC AR isolate): R
Antibiotic susceptibility profile (CDC AR isolates; Enterobacter cloacae E62, CDC AR isolate): R
Antibiotic susceptibility profile (CDC AR isolates; Escherichia coli EC541, CDC AR isolate): R
Antibiotic susceptibility profile (CDC AR isolates; Escherichia coli EC543, CDC AR isolate): R
Antibiotic susceptibility profile (CDC AR isolates; Escherichia coli EC544, CDC AR isolate): R
Antibiotic susceptibility profile (CDC AR isolates; Escherichia coli EC549, CDC AR isolate): R
Antibiotic susceptibility profile (CDC AR isolates; Klebsiella pneumoniae KP542, CDC AR isolate): R
Antibiotic susceptibility profile (CDC AR isolates; Klebsiella pneumoniae KP548, CDC AR isolate): S
Antibiotic susceptibility profile (CDC AR isolates; Klebsiella pneumoniae KP550, CDC AR isolate): R
Antibiotic susceptibility profile (CDC AR isolates; Klebsiella pneumoniae KP552, CDC AR isolate): R
Antibiotic susceptibility profile (CDC AR isolates; Pseudomonas aeruginosa PA229, CDC AR isolate): S
Antibiotic susceptibility profile (CDC AR isolates; Pseudomonas aeruginosa PA230, CDC AR isolate): R
Antibiotic susceptibility profile (CDC AR isolates; Pseudomonas aeruginosa PA231, CDC AR isolate): R
Antibiotic susceptibility profile (CDC AR isolates; Pseudomonas aeruginosa PA232, CDC AR isolate): R
Antibiotic susceptibility profile (CDC AR isolates; Pseudomonas aeruginosa PA239, CDC AR isolate): R

Reference: paper PMC9186412, “Rational Framework for the Design of Trp- and Arg-Rich Peptide Antibiotics Against Multidrug-Resistant Bacteria” (Frontiers in Microbiology, 2022)
